In US20230330280A1, “PREPARATIONS OF RADIUM-224 AND PROGENIES FOR USE IN RADIONUCLIDE THERAPY IN COMBINATION WITH DNA REPAIR INHIBITORS” (priority 2020, published 2023) one finds IC50 data, which are given here for two compounds.

Like-named read-outs stand apart in the source and are kept apart here.

Assay [1] deals with SKOV-3 (adenocarcinoma) ovarian cancer cell line. The assay is described as follows: CyQuant NF cell proliferation assay (DNA content), single agents and paired combinations, SKOV-3. In kind it is cell-based. As to conditions: Homo sapiens. The text has this:
(§1) Ovarian cancer cell lines: ES-2 (clear cell carcinoma) and SKOV-3 (adenocarcinoma), were used to investigate the pharmacodynamic interactions resulting from the paired combination of Radium-224 (^224Ra) with a DNA repair inhibitor exemplified by the poly (ADP-ribose) polymerase inhibitors (PARPi); niraparib and olaparib.

Assay [2] relates to ES-2 (clear cell carcinoma) ovarian cancer cell line. Kind of assay: CyQuant NF cell proliferation assay (DNA content), single agents and paired combinations, ES-2. The format is cell-based.
From the text: as §1

[3] abbreviates: SK-OV-3, 72 h, SKOV-3, Day 3, PARPi in paired combination with 224Ra, read-out: Paired combination IC50.
Setting [4] is: SK-OV-3, 72 h, SKOV-3, Day 3, single agent, read-out: Single agent IC50.
Where [5] appears, read: SK-OV-3, 96 h, SKOV-3, Day 4, PARPi in paired combination with 224Ra, read-out: Paired combination IC50.
[6] abbreviates: SK-OV-3, 96 h, SKOV-3, Day 4, single agent, read-out: Single agent IC50.
The mark [7] stands for this setting: SK-OV-3, 120 h, SKOV-3, Day 5, PARPi in paired combination with 224Ra, read-out: Paired combination IC50.
The mark [8] stands for this setting: SK-OV-3, 120 h, SKOV-3, Day 5, single agent, read-out: Single agent IC50.
The mark [9] stands for this setting: 72 h, ES-2, Day 3, PARPi in paired combination with 224Ra, read-out: Paired combination IC50.
Setting [10] is: 72 h, ES-2, Day 3, single agent, read-out: Single agent IC50.
Setting [11] is: 96 h, ES-2, Day 4, PARPi in paired combination with 224Ra, read-out: Paired combination IC50.
The mark [12] stands for this setting: 96 h, ES-2, Day 4, single agent, read-out: Single agent IC50.
Where [13] appears, read: 120 h, ES-2, Day 5, PARPi in paired combination with 224Ra, read-out: Paired combination IC50.
Setting [14] is: 120 h, ES-2, Day 5, single agent, read-out: Single agent IC50.

`NC(=O)c1cccc2cn(-c3ccc([C@@H]4CCCNC4)cc3)nc12` [Niraparib, niraparib]: the IC50 in assay [1] (setting [3]) stood at 2450 nM; in assay [1] (setting [4]), 5160 nM; in assay [1] (setting [5]) it was 430 nM; in assay [1] (setting [6]) it was 2830 nM; in assay [1] (setting [7]) it was 220 nM; in assay [1] (setting [8]), 2200 nM. Besides, the IC50 stood at 420 nM in assay [2] (setting [9]); 690 nM in assay [2] (setting [10]); 250 nM in assay [2] (setting [11]); 780 nM in assay [2] (setting [12]); 360 nM in assay [2] (setting [13]); 620 nM in assay [2] (setting [14]).
For the compound `O=C(c1cc(Cc2n[nH]c(=O)c3ccccc23)ccc1F)N1CCN(C(=O)C2CC2)CC1` [Olaparib, olaparib], the IC50 worked out at 10200 nM in assay [1] (setting [3]); 21400 nM in assay [1] (setting [4]); 2670 nM in assay [1] (setting [5]); 23600 nM in assay [1] (setting [6]); 810 nM in assay [1] (setting [7]); 1830 nM in assay [1] (setting [8]). Besides, the IC50 in assay [2] (setting [9]) was 1430 nM; in assay [2] (setting [10]) it was 3510 nM; in assay [2] (setting [11]), 500 nM; in assay [2] (setting [12]) it was 1230 nM; in assay [2] (setting [13]), 930 nM; in assay [2] (setting [14]) it was 2210 nM.

In general, IC50 refers to the concentration at which inhibition is half-maximal.
